Data on three molecules can be found in patent US11701389B2, “Methods of preserving mesenchymal stem cells” (Emory University, priority 2016, dated 2023).

In this assay the test system is T cell proliferation in SEB activated PBMCs. The experiment in a line: MSC and PBMC coculture, Ki67 T cell proliferation assay. The assay is classed as cell-based, human. The settings on record: for inhibition of T cell proliferation by frozen-thawed MSCs pretreated with inhibitor prior to cryopreservation: Z-VAD-FMK 50 uM or 3-Methyl Adenine 1 mM pretreatment, FIG. 5A, 5B.

Molecules are shown by their SMILES. Where a SMILES comes first, the peptide text is derived from it. The star is where a group is joined. Cbz = O=C(OCc1ccccc1)*; CH2F = FC*

Turning to `Cn1cnc(N)c2ncnc1-2` [3-Methyl Adenine], the “inhibition of T cell proliferation by frozen-thawed MSCs pretreated with inhibitor prior to cryopreservation” value is listed as “defective in inhibiting T cell proliferation”.

In the case of `COC(=O)C[C@H](NC(=O)[C@H](C)NC(=O)[C@@H](NC(=O)OCc1ccccc1)C(C)C)C(=O)CF` [Z-VAD-FMK] (Cbz-Val-Ala-Asp(OMe)-CH2F), the “inhibition of T cell proliferation by frozen-thawed MSCs pretreated with inhibitor prior to cryopreservation” value is recorded as “defective in inhibiting T cell proliferation”. On to `Cn1cc(C[C@H](N)C(=O)O)c2ccccc21` (racemic) [1-Methyl Tryptophan], for which the “effect of IDO blocking on suppression of T-cell proliferation by IFNgamma Cryo MSCs” value (1 mM added to coculture, FIG. 5F) is “negates the suppressive effect”.
